Results as given in publication PMC8851282, “Senolysis induced by 25-hydroxycholesterol targets CRYAB in multiple cell types” (iScience, 2022).

Experiments:
[1] = system: human cardiac microvascular endothelial cells (hCMECs); test: Cell viability assay of NS and Doxo- or IR-induced senescent hCMECs treated with 25HC; assay type: cell-based; conditions: 10 μM after 15 days of treatment; Doxo or IR induced senescence
Method: Figure 7 25HC treatment timeline and its effects on NS and SEN hCMECs, hLSCs, hRPTECs, and hACs All cell types were treated with either DMSO, 250 nM Doxo or 10-Gy IR at the times shown. 25HC treatment was started 24 h after Doxo or IR treatment. Cell viability was measured every 3–5 days for 15 days. Optimal treatment times for maximum senolysis are shown for each cell type: day 15 for hCMECs, day 3 for hLSCs, day 9 for hRPTECs and day 12 for hACs. For qRT-PCR: mean ± SE, n =4, ∗p< 0.05, ∗∗p< 0.01, ∗∗∗p<0.001, ∗∗∗∗p<0.0001 by Dunnett’s multiple comparisons test vs DMSO or NS, For cell viability assays: mean ± SE, n =3, ∗∗p< 0.01, ∗∗∗p<0.001, ∗∗∗∗p<0.0001 vs 0 mM by student’s t test.
All experiments were performed in incubators at 37 °C, 3% O2 and 5% CO2. Senescence was induced by treatment with either Doxo (250 nM for 24 h) ([Demaria et al., 2017]) or X-irradiation (10 Gy) ([Limbad et al., 2020]). […]
Cell viability was assessed using a cell counting kit-8 from Dojindo Molecular Technologies, Inc (Cat CK04-20). […] The supernatant was transferred to a new 96-well plate and absorbance read at 450 nm as recommended in the product datasheet. […]
Supplementary Fig. 10 (related to Fig. 6-7). […] Cel l vi abi l i ty was measured every 3–5 days until 15 days. […] Cel l vi abi l i ty was measured every 3–5 days until 15 days. […]

[2] = system: Cdkn1a and Cryab mRNA in gastrocnemius and soleus muscles; test: qRT-PCR of senescence markers and Cryab in muscles of Doxo-treated mice given 25HC; assay type: in vivo, mouse; conditions: Doxo-treated male mice, 25HC 50 mg/kg i.p. for 7 consecutive days
Method: Figure 8 25HC induces senolysis in vivo in Doxo-treated mice (A) Timeline of 25HC treatment in Doxo-treated mice. Mice were given 4 mg/kg Doxo or PBS for 5 daily injections[A1], then injected with 25HC or vehicle for 7 consecutive days. (B) Mass of gastrocnemius muscles. Muscle weight was normalized to body weight. (C) Cdkn2a and Cryab mRNA levels in gastrocnemius (Gastroc) and soleus (Sol) muscles. RNA was collected 28–30 d after the first treatment with Doxo. mRNA levels were quantified by qRT-PCR, and normalized to actin mRNA levels. The average value of PBS-vehicle was set at 1. (D) 15-d-PGJ2 analysis in urine. Urine was collected at 24 h after the first treatment with 25HC or HbCD. p values versus PBS-Veh or Doxo-Veh are obtained using Tukey's multiple comparisons test. ∗p < 0.05, ∗∗p < 0.01, p < 0.001, and ∗∗∗∗p < 0.0001.
Male C57BL/6J mice (3–4 months old) were purchased from the Jackson Laboratory. We performed five i.p. injections with 4 mg/kg of Doxo (Tocris Bioscience, Product# 2252) for each injection over 10 days (Figure 6A). Therefore, we injected a total of 20 mg/kg of Doxo/mouse over 10 days. We used EFT-PBS (EMD Millipore, Product# TMS-012-A) as a control. To test effects of 25HC (Tocris Bioscience, Product# 5741) on Doxo-treated mice, we prepared three experimental groups (n=15 for each group): 1) PBS+HβCD vehicle (22.5%), 2) Doxo (20 mg/kg)+vehicle (22.5%), 3) Doxo (20 mg/kg)+25HC (50 mg/kg) (Figure 6A); 25HC was dissolved in 22.5% 2-hydroxypropyl-beta-cyclodextrin (HβCD) (Tocris Bioscience, Product 0708). On the Day 5 after the last Doxo/PBS injections, the mice were treated with either 25HC (50 mg/kg) or vehicle by i.p. injections for 7 consecutive days (Figure 6A). 12 hr after the first 25HC or vehicle treatments, urine was collected (Figure 6A) from each group to test for the senolysis marker 15-d-PGJ2. […] Senescence markers p16^INK4a, p21^Cip1 and CRYAB expression was analyzed on gastrocnemius (Gastroc), soleus (So), tibialis anterior (TA), visceral fat (VF), kidney (Ki), liver (Li), lung (Lu), heart (He), and skin (Sk) samples by qRT-PCR. […]

SARS-CoV-2 = system: SARS-CoV-2; design: method as in Wang et al., 2020; Zang et al., 2020; Zu et al., 2020; conditions: by depleting membrane cholesterol, ref Wang et al., 2020, Zang et al., Zu et al.; cited from earlier work

Question: With `C[C@H](CCCC(C)(C)O)[C@H]1CC[C@H]2[C@@H]3CC=C4C[C@@H](O)CC[C@]4(C)[C@H]3CC[C@]12C` [25HC, 25-hydroxycholesterol] as the molecule, how does the “senolysis in hCMECs” value [1] read?
Answer: Its value is “induced significant senolysis”.

Question: What about the “Cryab mRNA levels in muscle” value [2] of the same molecule?
Answer: The value was “reduced”.

Question: What about the “Cdkn1a mRNA in gastrocnemius and soleus” value ([2]; versus Doxo + vehicle) of the same molecule?
Answer: Its value is “significantly decreased”.

Question: And the SARS-CoV-2 replication (SARS-CoV-2)?
Answer: The SARS-CoV-2 replication was “inhibits SARS-CoV-2 replication”.
